Results taken from patent US20250134875A1, “FORMULATIONS OF ALK-5 KINASE INHIBITORS AND USES THEREOF” (Thirona Bio, Inc., priority 2023, published 2025).
Values after ≈ are worked out from the molar mass of the structure shown.

Assays:
[1] = Solubility of Compound 1 in solvents; assay type: physicochemical
From the text: Tables 2 and 3 provide the solubility of the exemplary ALK-5 kinase inhibitor Compound 1 in various solvents.

[2] = tested on: surgical incision-induced dermal fibrosis; assay: Surgical incision-induced dermal fibrosis model: clinical signs, visual assessment, histology; assay type: in vivo, Göttingen minipig
Experimental: . Therefore, a model of surgical incision-induced dermal fibrosis was established in minipigs and the effects of topical Compound 1 were evaluated by visual assessment, histologic examination and gene expression by RNA sequencing.
The study was conducted in 4 female Göttingen SPF minipigs. On Day 1, eight full thickness incisional wounds, four on each side, were performed on each animal. […]. All animals received a dose volume of 160 μl per wound ([…] applied to a 32 cm2 area surrounding each incision). Clinical signs, visual observations of incisions, body weight and food consumption were recorded during the in-life period. At necropsy (Day 21) two biopsies were collected from each incision for histopathology and gene expression analysis.
For histopathology, a 0.8 cm punch biopsy was collected from the incisional wounds. The biopsies were divided into two, diagonal to the incisional wound. All biopsies were individually fixed in phosphate buffered neutral 4% formaldehyde. Following fixation, all incisional wound biopsies collected for microscopic examination were trimmed and processed. The specimens were embedded in paraffin and cut at a nominal thickness of approximately […], stained with haematoxylin and eosin, and examined by light microscopy.

[3] = Solubility assessment in solvent and excipient systems (formulated systems); assay type: physicochemical; conditions: 25° C.
From the text: Table 5 provides the solubility of Compound 1 in various solvents and excipient systems to analyze the topical systems to be utilized with the formulations.

[4] = Excipient compatibility / stability study (HPLC, 2 weeks); assay type: physicochemical; conditions: for Loss of Compound 1 on storage / Stability conclusion: 2 weeks; for Stability conclusion: RT, 40 and 50° C.
Experimental: Stability studies were conducted to evaluate compatibility and stability of Compound 1 with some of the excipients included in the solubility experiments. The stability was assessed using the validated API HPLC method after storage at room temperature (RT), 40° C. and 50° C. for 2 weeks. The summary of the data generated from these experiments is provided below in Table 6 below.

[5] = tested on: profibrotic genes; assay: Gene expression (RNA sequencing) in surgical incision-induced dermal fibrosis model; assay type: in vivo, Göttingen minipig
Experimental: Minipig skin is more similar to human skin than rodent skin, and dermal delivery of topical ALK-5 kinase inhibitor Compound 1 in minipigs is expected to be reflective of treatment of human skin. Therefore, a model of surgical incision-induced dermal fibrosis was established in minipigs and the effects of topical Compound 1 were evaluated by visual assessment, histologic examination and gene expression by RNA sequencing.
The study was conducted in 4 female Göttingen SPF minipigs. On Day 1, eight full thickness incisional wounds, four on each side, were performed on each animal. Compound 1 0% (Vehicle), 0.1%, 0.3% or 1% was applied topically twice daily for 14 days from Day 7 through Day 20 on each incision. All animals received a dose volume of 160 μl per wound ([…] applied to a 32 cm2 area surrounding each incision). Clinical signs, visual observations of incisions, body weight and food consumption were recorded during the in-life period. At necropsy (Day 21) two biopsies were collected from each incision for histopathology and gene expression analysis.
For gene expression analysis, a 0.3 cm punch biopsy was collected from the incisional wounds. Samples were collected and stored overnight in prefilled tubes containing RNAlater at 5±3° C., and then transferred to a freezer and stored at ˜−20° C. The biopsies collected were then thawed and subjected to RNA purification and then generation of mRNA-enriched cDNA libraries for Illumina sequencing. RNA sequencing was performed to a depth of ˜15 million reads followed by bioinformatic analysis, including differential gene expression analysis.

[6] = topical 0.1%, 0.3% or 1% twice daily Day 7-20, biopsy Day 21

Structure (SMILES): Cc1cccc(-n2ncc(C)c2-c2cc3cnccc3s2)n1 [Compound 1]
- solubility ([1]; Cycolmethicone NF, oil or lipid): 190 µg/mL (≈ 0.62 mM)
- solubility ([1]; DMSO, organic solvent or mixture): 83700 µg/mL (≈ 273 mM)
- solubility ([1]; Dimethicone 100 CST, oil or lipid): 110 µg/mL (≈ 0.359 mM)
- solubility ([1]; PEG 400, organic solvent or mixture): 43900 µg/mL (≈ 143 mM)
- solubility ([1]; PPG-15 stearyl ether, oil or lipid): 4870 µg/mL (≈ 15.9 mM)
- solubility ([1]; Transcutol (DEGEE), organic solvent or mixture): 115000 µg/mL (≈ 376 mM)
- solubility ([1]; acetone, organic solvent or mixture): 38300 µg/mL (≈ 125 mM)
- solubility ([1]; benzyl alcohol, organic solvent or mixture): > 300000 µg/mL
- solubility ([1]; diethyl sebacate, oil or lipid): 13100 µg/mL (≈ 42.6 mM)
- solubility ([1]; diisopropyl adipate, oil or lipid): 50500 µg/mL (≈ 165 mM)
- solubility ([1]; ethanol, organic solvent or mixture): 30800 µg/mL (≈ 101 mM)
- solubility ([1]; hexylene glycol, organic solvent or mixture): 50200 µg/mL (≈ 164 mM)
- solubility ([1]; isopropyl myristate, oil or lipid): 3450 µg/mL (≈ 11.3 mM)
- solubility ([1]; medium chain triglycerides, oil or lipid): 5310 µg/mL (≈ 17.3 mM)
- solubility ([1]; mineral oil, oil or lipid): 540 µg/mL (≈ 1.76 mM)
- solubility ([1]; octyldodecanol, oil or lipid): 5370 µg/mL (≈ 17.5 mM)
- solubility ([1]; organic solvent or mixture, Propylene Glycol (PG)): 23700 µg/mL (≈ 77.4 mM)
- solubility ([1]; phenethyl alcohol, organic solvent or mixture): > 300000 µg/mL
- solubility ([1]; phosphate buffer, pH 6.5, aqueous buffer): 20 µg/mL (≈ 0.0653 mM)
- solubility ([1]; propylene carbonate, organic solvent or mixture): 24100 µg/mL (≈ 78.7 mM)
- solubility ([1]; sodium citrate buffer, pH 3, aqueous buffer, Sod.Citrate buffer (pH3)): 2190 µg/mL (≈ 7.15 mM)
- solubility ([1]; sodium citrate buffer, pH 4, aqueous buffer, Sod.Citrate buffer (pH4)): 290 µg/mL (≈ 0.946 mM)
- solubility ([1]; sodium citrate buffer, pH 5, aqueous buffer, Sod.Citrate buffer (pH5)): 70 µg/mL (≈ 0.228 mM)
- solubility ([1]; water): 20 µg/mL (≈ 0.0653 mM)
- Wound healing (histology: new collagen, re-epithelialisation) ([2]; Day 21): wound healing was not compromised
- Adverse clinical signs ([2]; in-life period, topical 0.1%, 0.3% or 1% twice daily for 14 days): No adverse clinical signs
- Fibrosis (gene expression and histology data) ([2]; topical administration): inhibits fibrosis
- Max solubility of Compound 1 ([3]; Aqueous Gels, aqueous component 10-30% w/w): 1-2.7%/w
- Max solubility of Compound 1 ([3]; Creams & Lotions, aqueous component 30-40% w/w): 1-1.5%/w
- Max solubility of Compound 1 ([3]; Non-Aqueous Gels & Film forming solutions, aqueous component 0.0% w/w): 3-3.5%/w
- Loss of Compound 1 on storage ([4]; Benzyl Alcohol +0.1% BHT, 40° C.): No Loss
- Loss of Compound 1 on storage ([4]; Benzyl Alcohol +0.1% BHT, 50° C.): No Loss
- Loss of Compound 1 on storage ([4]; Benzyl Alcohol +0.1% BHT, RT storage): No Loss
- Stability conclusion ([4]; Benzyl Alcohol +0.1% BHT): STABLE AT ALL
- Loss of Compound 1 on storage ([4]; Benzyl Alcohol, 40° C.): No Loss
- Loss of Compound 1 on storage ([4]; Benzyl Alcohol, 50° C.): No Loss
- Loss of Compound 1 on storage ([4]; Benzyl Alcohol, RT storage): No Loss
- Stability conclusion ([4]; Benzyl Alcohol): STABLE AT ALL
- Loss of Compound 1 on storage ([4]; Diethyl Sebacate, 40° C.): 3-4% loss
- Loss of Compound 1 on storage ([4]; Diethyl Sebacate, 50° C.): 6% loss
- Loss of Compound 1 on storage ([4]; Diethyl Sebacate, RT storage): No Loss
- Stability conclusion ([4]; Diethyl Sebacate): Some Instability
- Loss of Compound 1 on storage ([4]; PEG 400 + 0.1% BHT, 40° C.): No Loss
- Loss of Compound 1 on storage ([4]; PEG 400 + 0.1% BHT, 50° C.): No Loss
- Loss of Compound 1 on storage ([4]; PEG 400 + 0.1% BHT, RT storage): No Loss
- Loss of Compound 1 on storage ([4]; PEG 400, 40° C.): 10% loss
- Loss of Compound 1 on storage ([4]; PEG 400, 50° C.): ~28% loss
- Loss of Compound 1 on storage ([4]; PEG 400, RT storage): No Loss
- Stability conclusion ([4]; PEG 400): Unstable at > RT
- Loss of Compound 1 on storage ([4]; Phenoxyethanol +0.1% BHT, 40° C.): No Loss
- Loss of Compound 1 on storage ([4]; Phenoxyethanol +0.1% BHT, 50° C.): No Loss
- Loss of Compound 1 on storage ([4]; Phenoxyethanol +0.1% BHT, RT storage): No Loss
- Stability conclusion ([4]; Phenoxyethanol +0.1% BHT): STABLE AT ALL
- Loss of Compound 1 on storage ([4]; Phenoxyethanol, 40° C.): No Loss
- Loss of Compound 1 on storage ([4]; Phenoxyethanol, 50° C.): No Loss
- Loss of Compound 1 on storage ([4]; Phenoxyethanol, RT storage): No Loss
- Stability conclusion ([4]; Phenoxyethanol): STABLE AT ALL
- Loss of Compound 1 on storage ([4]; Propylene Glycol, 40° C.): No Loss
- Loss of Compound 1 on storage ([4]; Propylene Glycol, 50° C.): No Loss
- Loss of Compound 1 on storage ([4]; Propylene Glycol, RT storage): No Loss
- Stability conclusion ([4]; Propylene Glycol): STABLE AT ALL
- Loss of Compound 1 on storage ([4]; Transcutol (DEGEE) +0.1% BHT, 40° C.): No Loss
- Loss of Compound 1 on storage ([4]; Transcutol (DEGEE) +0.1% BHT, 50° C.): No Loss
- Loss of Compound 1 on storage ([4]; Transcutol (DEGEE) +0.1% BHT, RT storage): No Loss
- Stability conclusion ([4]; Transcutol (DEGEE) +0.1% BHT): STABLE AT ALL
- Loss of Compound 1 on storage ([4]; Transcutol (DEGEE), 40° C.): No Loss
- Loss of Compound 1 on storage ([4]; Transcutol (DEGEE), 50° C.): No Loss
- Loss of Compound 1 on storage ([4]; Transcutol (DEGEE), RT storage): No Loss
- Stability conclusion ([4]; Transcutol (DEGEE)): STABLE AT ALL
- Loss of Compound 1 on storage ([4]; pH 3 Citrate buffer, 40° C.): No Loss
- Loss of Compound 1 on storage ([4]; pH 3 Citrate buffer, 50° C.): No Loss
- Loss of Compound 1 on storage ([4]; pH 3 Citrate buffer, RT storage): No Loss
- Stability conclusion ([4]; pH 3 Citrate buffer): STABLE AT ALL
- Loss of Compound 1 on storage ([4]; pH4 Citrate buffer, 40° C.): No Loss
- Loss of Compound 1 on storage ([4]; pH4 Citrate buffer, 50° C.): No Loss
- Loss of Compound 1 on storage ([4]; pH4 Citrate buffer, RT storage): No Loss
- Stability conclusion ([4]; pH4 Citrate buffer): STABLE AT ALL
- Loss of Compound 1 on storage ([4]; pH5 Citrate buffer, 40° C.): No Loss
- Loss of Compound 1 on storage ([4]; pH5 Citrate buffer, 50° C.): No Loss
- Loss of Compound 1 on storage ([4]; pH5 Citrate buffer, RT storage): No Loss
- Stability conclusion ([4]; pH5 Citrate buffer): STABLE AT ALL
- Stability of Compound 1 with excipients (summary) ([4]; solubility and compatibility experiments): relatively stable except with PEG400 and Diethyl Sebacate
- Gene expression of the profibrotic genes investigated ([5]; FIG. 7): consistent tendency to dose-dependently reduce gene expression
- Change in gene expression, ADAM12 [5, 6]: −52%
- Change in gene expression, ADAMTS14 [5, 6]: −52%
- Change in gene expression, BMP1 [5, 6]: −47%
- Change in gene expression, COL1A1 [5, 6]: −49%
- Change in gene expression, COL1A2 [5, 6]: −48%
- Change in gene expression, COL3A1 [5, 6]: −49%
- Change in gene expression, MMP2 [5, 6]: −52%
- Change in gene expression, MMP9 [5, 6]: −54%
- Change in gene expression, MMP14 [5, 6]: −42%
- Change in gene expression, TGF-β1 [5, 6]: up to −23%
- Change in gene expression, TGF-β2 [5, 6]: ≤ −32%
- Change in gene expression, TGF-β3 [5, 6]: ≤ −49%
- Change in gene expression, THBS4 [5, 6]: −67%
- Change in gene expression, TIMP1 [5, 6]: −17%
- Change in gene expression, TIMP2 [5, 6]: −46%
